IC50 data for 16 molecules are collected here from US9732119B2, “Immunomodulators” (BRISTOL-MYERS SQUIBB COMPANY, priority 2014, dated 2017).

A word on the IC50: it is the midpoint of a concentration-inhibition curve.

Each structure is given as a SMILES string. Positions of bridges follow the written chain, without caps; N, C: chain ends. Non-standard residues stand in square brackets, D forms with d. Residues, ends and D or L forms follow the SMILES beside them. Trp(1-CH2COOH) = N[C@@H](Cc1cn(CC(=O)O)c2ccccc12)C(=O)O; Phe(4-Cl) = N[C@@H](Cc1ccc(Cl)cc1)C(=O)O; Phe(4-F) = N[C@@H](Cc1ccc(F)cc1)C(=O)O; Phe(4-Me) = Cc1ccc(C[C@H](N)C(=O)O)cc1; Hyp = O=C(O)[C@@H]1C[C@@H](O)CN1; Aad = N[C@@H](CCCC(=O)O)C(=O)O; NMeNle = CCCC[C@H](NC)C(=O)O; dOrn = NCCC[C@@H](N)C(=O)O; Pip = O=C(O)[C@@H]1CCCCN1; Orn = NCCC[C@H](N)C(=O)O; Dab = NCC[C@H](N)C(=O)O; Dap = NC[C@H](N)C(=O)O; Ava = NCCCCC(=O)O

The target of the test is T1, PD-1-Ig binding to PD-L1-TVMV-His (PD-L1-His) (Homo sapiens, UniProt Q9NZQ7).
T1 construct: hPDL1(19-239)-TVMV-His; made in house; host or cells: HEK293T cells
Put plainly: PD-1/PD-L1 Homogenous Time-Resolved Fluorescence (HTRF) binding assay. The following applies: PD-1-Ig (20 nM) / PD-L1-His (10 nM); range classes. The procedure, abridged: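 In dPBS with 0.1% BSA and 0.05% Tween-20, inhibitors were preincubated 15 min with 10 nM PD-L1-His before 20 nM PD-1-Ig was added for another 15 min. Binding read by time-resolved FRET between Eu-cryptate anti-Ig (1 nM) and APC anti-His (20 nM).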

T1 sequence (Q9NZQ7 with tags, fused parts or gaps): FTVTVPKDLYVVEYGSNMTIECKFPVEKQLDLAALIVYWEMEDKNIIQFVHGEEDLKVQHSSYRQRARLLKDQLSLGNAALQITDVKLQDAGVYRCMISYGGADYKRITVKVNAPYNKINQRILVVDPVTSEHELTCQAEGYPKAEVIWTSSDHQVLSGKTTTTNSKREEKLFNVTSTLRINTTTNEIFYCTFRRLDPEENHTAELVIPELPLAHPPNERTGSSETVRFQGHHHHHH

`CCCC[C@H]1C(=O)N(C)[C@@H](CCCC)C(=O)N[C@@H](CC(C)C)C(=O)N[C@H](C(N)=O)CCCC(=O)N[C@@H](Cc2ccc(Cl)cc2)C(=O)N2CCCC[C@H]2C(=O)N[C@@H](CC(=O)O)C(=O)N2CCC[C@H]2C(=O)N[C@@H](CN)C(=O)N[C@@H](CC(C)C)C(=O)N2C[C@H](O)C[C@H]2C(=O)N[C@@H](Cc2c[nH]c3ccccc23)C(=O)N[C@@H](CCN)C(=O)N[C@@H](Cc2cn(CC(=O)O)c3ccccc23)C(=O)N1C` [Example 10556] ([Phe(4-Cl)][Pip]DP[Dap]L[Hyp]W[Dab][Trp(1-CH2COOH)][NMeNle][NMeNle]L[Aad]-NH2; lactam N-14) registered an IC50 of 1 to 9.9 nM. Under `CCCC[C@H]1C(=O)N(C)[C@@H](CCCC)C(=O)N[C@@H](CC(C)C)C(=O)N[C@H](C(N)=O)CNCC(=O)N[C@@H](Cc2ccc(O)cc2)C(=O)N2CCCC[C@H]2C(=O)N[C@@H](CC(N)=O)C(=O)N2CCC[C@H]2C(=O)N[C@@H](CCC(N)=O)C(=O)N[C@@H](CCC(N)=O)C(=O)N2C[C@H](O)C[C@H]2C(=O)N[C@@H](Cc2c[nH]c3ccccc23)C(=O)N[C@@H](CC(N)=O)C(=O)N[C@@H](Cc2cn(CC(=O)O)c3ccccc23)C(=O)N1C` [Example 9029] stands 1 to 9.9 nM; under `CCCC[C@H]1C(=O)N(C)[C@@H](CCCC)C(=O)N[C@@H](CC(C)C)C(=O)NCCC[C@H](N)C(=O)N[C@@H](Cc2ccc(F)cc2)C(=O)N2CCCC[C@H]2C(=O)N[C@@H](CC(N)=O)C(=O)N2CCC[C@H]2C(=O)N[C@@H](CN)C(=O)N[C@@H](CCC(=O)O)C(=O)N2C[C@H](O)C[C@H]2C(=O)N[C@@H](Cc2c[nH]c3ccccc23)C(=O)N[C@@H](CCN)C(=O)N[C@@H](Cc2cn(CC(=O)O)c3ccccc23)C(=O)N1C` [Example 10548] (H-[Orn][Phe(4-F)][Pip]NP[Dap]E[Hyp]W[Dab][Trp(1-CH2COOH)][NMeNle][NMeNle]L; lactam 1-C), 10 to 99 nM.

Turning to `CCCC[C@H]1C(=O)N(C)[C@@H](CCCC)C(=O)N[C@@H](CC(C)C)C(=O)N[C@H](C(N)=O)CCCC(=O)N[C@@H](Cc2ccc(Cl)cc2)C(=O)N2CCCC[C@H]2C(=O)N[C@@H](CC(N)=O)C(=O)N2CCC[C@H]2C(=O)N[C@@H](CN)C(=O)N[C@@H](CC(C)C)C(=O)N2C[C@H](O)C[C@H]2C(=O)N[C@@H](Cc2c[nH]c3ccccc23)C(=O)N[C@@H](CCN)C(=O)N[C@@H](Cc2cn(CC(=O)O)c3ccccc23)C(=O)N1C` [Example 10534] ([Phe(4-Cl)][Pip]NP[Dap]L[Hyp]W[Dab][Trp(1-CH2COOH)][NMeNle][NMeNle]L[Aad]-NH2; lactam N-14), the IC50 was 1 to 9.9 nM. Molecule `CCCC[C@H]1C(=O)N(C)[C@@H](CCCC)C(=O)N[C@@H](C)C(=O)N[C@H](C(=O)NCC(N)=O)CNCC(=O)N[C@@H](Cc2ccc(O)cc2)C(=O)N(C)[C@@H](C)C(=O)N[C@@H](CC(=O)O)C(=O)N2CCC[C@H]2C(=O)N[C@@H](Cc2cnc[nH]2)C(=O)N[C@@H](CCC(N)=O)C(=O)N2C[C@H](O)C[C@H]2C(=O)N[C@@H](Cc2c[nH]c3ccccc23)C(=O)N[C@@H](CO)C(=O)N[C@@H](Cc2cn(CC(=O)O)c3ccccc23)C(=O)N1C` [Example 10014] displayed an IC50 of 1 to 9.9 nM. Under `CCCC[C@H]1C(=O)N(C)[C@@H](CCCC)C(=O)N[C@@H](CC(C)C)C(=O)NCCC[C@@H](N)C(=O)N[C@@H](Cc2ccc(Cl)cc2)C(=O)N2CCCC[C@H]2C(=O)N[C@@H](CC(N)=O)C(=O)N2CCC[C@H]2C(=O)N[C@@H](CN)C(=O)N[C@@H](CC(C)C)C(=O)N2C[C@H](O)C[C@H]2C(=O)N[C@@H](Cc2c[nH]c3ccccc23)C(=O)N[C@@H](CCN)C(=O)N[C@@H](Cc2cn(CC(=O)O)c3ccccc23)C(=O)N1C` [Example 10559] (H-[dOrn][Phe(4-Cl)][Pip]NP[Dap]L[Hyp]W[Dab][Trp(1-CH2COOH)][NMeNle][NMeNle]L; lactam 1-C) stands 10 to 99 nM; under `CCCC[C@H]1C(=O)N(C)[C@@H](CCCC)C(=O)NC(CC(C)C)C(=O)N[C@H](C(N)=O)CNCC(=O)N[C@@H](Cc2ccc(O)cc2)C(=O)N(C)[C@@H](C)C(=O)N[C@@H](CC(N)=O)C(=O)N2CCC[C@H]2C(=O)N[C@@H](CN)C(=O)N[C@@H](CC(C)C)C(=O)N2C[C@H](O)C[C@H]2C(=O)N[C@@H](Cc2c[nH]c3ccccc23)C(=O)N[C@@H](CCN)C(=O)N[C@@H](Cc2cn(CC(=O)O)c3ccccc23)C(=O)N1C` (stereo partly shown) [Example 1034], 1 to 9.9 nM.

Take `CCCC[C@H]1C(=O)N(C)[C@@H](CCCC)C(=O)N[C@@H](CC(C)C)C(=O)NCCCCC(=O)N[C@@H](Cc2ccc(C)cc2)C(=O)N2CCCC[C@H]2C(=O)N[C@@H](CC(N)=O)C(=O)N2CCC[C@H]2C(=O)N[C@@H](CN)C(=O)N[C@@H](CCC(=O)O)C(=O)N2C[C@H](O)C[C@H]2C(=O)N[C@@H](Cc2c[nH]c3ccccc23)C(=O)N[C@@H](CCN)C(=O)N[C@@H](Cc2cn(CC(=O)O)c3ccccc23)C(=O)N1C` [Example 10541] (cyclo([Ava][Phe(4-Me)][Pip]NP[Dap]E[Hyp]W[Dab][Trp(1-CH2COOH)][NMeNle][NMeNle]L)): the IC50 lay within 1 to 9.9 nM.

`CCCC[C@H]1C(=O)N(C)[C@@H](CCCC)C(=O)N[C@@H](CC(C)C)C(=O)N[C@H](C(=O)NCC(N)=O)CNCC(=O)N[C@@H](Cc2ccc(O)cc2)C(=O)N(C)[C@@H](C)C(=O)N[C@@H](CC(N)=O)C(=O)N2CCC[C@H]2C(=O)N[C@@H](CCC(N)=O)C(=O)N[C@@H](CC(C)C)C(=O)N2C[C@H](O)C[C@H]2C(=O)N[C@@H](Cc2c[nH]c3ccccc23)C(=O)N[C@@H](CC(N)=O)C(=O)N[C@@H](Cc2cn(CC(=O)O)c3ccccc23)C(=O)N1C` [Example 9005] had an IC50 of 1 to 9.9 nM. Under `CCCC[C@H]1C(=O)N(C)[C@@H](CCCC)C(=O)N[C@@H](CCC(=O)O)C(=O)N[C@H](C(N)=O)CNCC(=O)N[C@@H](Cc2ccc(O)cc2)C(=O)N2CCCC[C@H]2C(=O)N[C@@H](CC(N)=O)C(=O)N2CCC[C@H]2C(=O)N[C@@H](Cc2c[nH]cn2)C(=O)N[C@@H](CCC(=O)O)C(=O)N2C[C@H](O)C[C@H]2C(=O)N[C@@H](Cc2c[nH]c3ccccc23)C(=O)N[C@@H](C)C(=O)N[C@@H](Cc2cn(CC(=O)O)c3ccccc23)C(=O)N1C` [Example 9055] stands 1 to 9.9 nM; under `CCCC[C@H]1C(=O)N(C)[C@@H](CCCC)C(=O)N[C@@H](CC(C)C)C(=O)NCCCCC(=O)N[C@@H](Cc2ccc(F)cc2)C(=O)N2CCCC[C@H]2C(=O)N[C@@H](CC(N)=O)C(=O)N2CCC[C@H]2C(=O)N[C@@H](CN)C(=O)N[C@@H](CC(C)C)C(=O)N2C[C@H](O)C[C@H]2C(=O)N[C@@H](Cc2c[nH]c3ccccc23)C(=O)N[C@@H](CCN)C(=O)N[C@@H](Cc2cn(CC(=O)O)c3ccccc23)C(=O)N1C` [Example 10536] (cyclo([Ava][Phe(4-F)][Pip]NP[Dap]L[Hyp]W[Dab][Trp(1-CH2COOH)][NMeNle][NMeNle]L)), 1 to 9.9 nM; under `CCCC[C@H]1C(=O)N(C)[C@@H](CCCC)C(=O)N[C@@H](CC(C)C)C(=O)N[C@H](C(N)=O)CCCC(=O)N[C@@H](Cc2ccc(O)cc2)C(=O)N2CCCC[C@H]2C(=O)N[C@@H](CC(N)=O)C(=O)N2CCC[C@H]2C(=O)N[C@@H](CN)C(=O)N[C@@H](CCC(=O)O)C(=O)N2C[C@H](O)C[C@H]2C(=O)N[C@@H](Cc2c[nH]c3ccccc23)C(=O)N[C@@H](CCN)C(=O)N[C@@H](Cc2cn(CC(=O)O)c3ccccc23)C(=O)N1C` [Example 10520] (Y[Pip]NP[Dap]E[Hyp]W[Dab][Trp(1-CH2COOH)][NMeNle][NMeNle]L[Aad]-NH2; lactam N-14), 10 to 99 nM. Under `CCCC[C@H]1C(=O)N(C)[C@@H](CCCC)C(=O)N[C@@H](CCC(=O)O)C(=O)N[C@H](C(=O)NCC(N)=O)CNCC(=O)N[C@@H](Cc2ccc(F)cc2)C(=O)N(C)[C@@H](C)C(=O)N[C@@H](CC(N)=O)C(=O)N2CCC[C@H]2C(=O)N[C@@H](CCC(N)=O)C(=O)N[C@@H](CC(C)C)C(=O)N2C[C@H](O)C[C@H]2C(=O)N[C@@H](Cc2c[nH]c3ccccc23)C(=O)N[C@@H](CC(N)=O)C(=O)N[C@@H](Cc2cn(CC(=O)O)c3ccccc23)C(=O)N1C` [Example 9022] stands 10 to 99 nM; under `CCCC[C@H]1C(=O)N(C)[C@@H](CCCC)C(=O)N[C@@H](CC(C)C)C(=O)N[C@H](C(=O)NCC(N)=O)CCCNCC(=O)N[C@@H](Cc2ccccc2)C(=O)N(C)[C@@H](C)C(=O)N[C@@H](CC(C)C)C(=O)N2CCC[C@H]2C(=O)N[C@@H](CC(C)C)C(=O)N[C@@H](CC(C)C)C(=O)N2CCC[C@H]2C(=O)N[C@@H](Cc2c[nH]c3ccccc23)C(=O)N[C@@H](CC(C)C)C(=O)N[C@@H](Cc2c[nH]c3ccccc23)C(=O)N1C` [Example 10010], 100 to 10000 nM; under `CCCC[C@H]1C(=O)N(C)[C@@H](CCCC)C(=O)N[C@@H](CC(C)C)C(=O)NCCCCC(=O)N[C@@H](Cc2ccc(OC)cc2)C(=O)N2CCCC[C@H]2C(=O)N[C@@H](CC(N)=O)C(=O)N2CCC[C@H]2C(=O)N[C@@H](CN)C(=O)N[C@@H](CCC(=O)O)C(=O)N2C[C@H](O)C[C@H]2C(=O)N[C@@H](Cc2c[nH]c3ccccc23)C(=O)N[C@@H](CCN)C(=O)N[C@@H](Cc2cn(CC(=O)O)c3ccccc23)C(=O)N1C` [Example 10542] (cyclo([Ava]Y(Me)[Pip]NP[Dap]E[Hyp]W[Dab][Trp(1-CH2COOH)][NMeNle][NMeNle]L)), 1 to 9.9 nM.

As for `CCCC[C@H]1C(=O)N(C)[C@@H](CCCC)C(=O)N[C@@H](CCC(=O)O)C(=O)N[C@H](C(=O)NCC(N)=O)CCNCC(=O)N[C@@H](Cc2ccc(O)cc2)C(=O)N(C)[C@@H](C)C(=O)N[C@@H](CC(=O)O)C(=O)N2CCC[C@H]2C(=O)N[C@@H](Cc2cnc[nH]2)C(=O)N[C@@H](CCC(N)=O)C(=O)N2C[C@H](O)C[C@H]2C(=O)N[C@@H](Cc2c[nH]c3ccccc23)C(=O)N[C@@H](CO)C(=O)N[C@@H](Cc2c[nH]c3ccccc23)C(=O)N1C` [Example 10023], the IC50 was 100 to 10000 nM.
